{
  "source": "patent US20180021277A1",
  "about": "“ANTI-VIRULENCE COMPOSITIONS AND METHODS” (priority 2012, published 2018)",
  "key": {"MRSA USA300 [1]": {"tested_on": "MRSA USA300", "type": "in vivo, mice", "settings": "topical twice a day for seven days, day 8"}, "[2]": {"biological_target": "T1, C-terminal DNA-binding domain (AgrA_C) of the Staphylococcus aureus response regulator AgrA (Staphylococcus aureus, UniProt P0A0I7)", "T1 sequence (P0A0I7 143-238)": "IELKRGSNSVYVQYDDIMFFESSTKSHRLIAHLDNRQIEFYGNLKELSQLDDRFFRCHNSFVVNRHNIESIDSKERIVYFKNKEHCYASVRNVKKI", "assay": "Microscale thermophoresis binding to AgrA_C", "settings": "listed as F19, read-out: Kd / affinity to AgrA_C", "procedure": "(§1) The AgrA C proteins from S. aureus and S. epidermidis were fluorescently labeled with Alexa Fluor 647 NHS ester and purified on Zeba spin columns. Compound F19 was diluted as a gradient through the capillaries while protein concentrations were maintained constant. Measurements were performed on a Nanotemper Monolith NT.115 apparatus. Lysozyme and known inhibitor N,N′,N″-triacetylchitotriose (Fisher Scientific) were used as controls."}, "[3]": {"biological_target": "T2, AgrA_C from Staphylococcus epidermidis (Staphylococcus epidermidis, UniProt Q5HMY2)", "T2 sequence (Q5HMY2 143-238 limits assumed)": "T1 sequence (P0A0I7 143-238) with S48A, D52E, V63I, K83G, H85N, Y87F", "assay": "Microscale thermophoresis binding to AgrA_C from S. epidermidis", "settings": "compared with S. aureus AgrA_C; data not shown", "procedure": "as §1"}, "MRSA": {"tested_on": "MRSA", "assay": "CFU counts of F19 treated vs. untreated MRSA cultures (serial dilution-plating)", "type": "cell-based, Staphylococcus aureus"}, "MRSE Q-15 [4]": {"tested_on": "MRSE Q-15", "assay": "Host cell damage assay (LDH leakage), MRSE", "type": "cell-based, Staphylococcus epidermidis", "settings": "for % Damage (LDH Leakage): THP-1 human monocytes; for Damage (%): Table 2, control = 100", "procedure": "(§2) Damage to host cells was measured by leakage of lactate dehydrogenase (LDH) with the CytoTox 96 Non-Radioactive Cytotoxicity LDH Assay Promega Kits G178 and G1782 according to manufacturer's instructions.\n(§3) […] The bacteria were cultured at 37° C., in a shaking incubator for 6 h at which time 20 μL of bacterial culture was added to 5×10^4 THP-1 monocytes or J774.2 macrophages in 100 μL of cell media (DMEM for J774.2 cells and RPMI for THP-1 cells) in 96 well plates. Bacteria and macrophage/monocytes were incubated together for 40 min at 37° C. Plates were then spun at 250 g for 4 min and 50 μL of the supernatant was removed to a new 96 well plate. 50 μL of substrate mix+assay buffer were added and incubated at room temperature for 10-30 min depending upon the rate of product formation and stopped by addition of 50 μL stop solution. The colorometric products were read at 490 nm on a Victor 3 plate reader. The data presented are from experiments performed in triplicate.\n(§4) Gram-positive pathogens compromise host cell defense factors by puncturing membranes of immune system cells. To examine F19 efficacy in preventing host cell damage by various pathogens cell lysis assays were carried out by measuring leakage of lactate dehydrogenase (LDH) from cells. F19 indeed inhibits pathogen-mediated lysis of human THP-1 monocytes and mouse macrophage cell line J7774.2 by a series of Gram-positive pathogens, including MRSA, MRSE, Streptococcus pyogenes, Streptococcus pneumoniae and Bacillus cereus in a dose dependent manner (Table 2 for MRSA, Table 4 for other pathogens)."}, "[5]": {"tested_on": "Strepococcus pneumonia NR13395", "assay": "Host cell damage assay (LDH leakage), Streptococcus pneumoniae", "type": "cell-based", "settings": "THP-1 human monocytes", "procedure": "as §2, §3, §4"}, "Bacillus cereus": {"tested_on": "Bacillus cereus", "assay": "Host cell damage assay (LDH leakage), Bacillus cereus", "type": "cell-based", "settings": "THP-1 human monocytes", "procedure": "as §2\nOvernight cultures of the bacterial strain to be tested were spun down, washed, diluted 1:4 and incubated with broth containing 10-50 μg/ml of F19 or containing 2% DMSO as control. The bacteria were cultured at 37° C., in a shaking incubator for 6 h at which time 20 μL of bacterial culture was added to 5×10^4 THP-1 monocytes or J774.2 macrophages in 100 μL of cell media (DMEM for J774.2 cells and RPMI for THP-1 cells) in 96 well plates. Bacteria and macrophage/monocytes were incubated together for 40 min at 37° C. Plates were then spun at 250 g for 4 min and 50 μL of the supernatant was removed to a new 96 well plate. 50 μL of substrate mix+assay buffer were added and incubated at room temperature for 10-30 min depending upon the rate of product formation and stopped by addition of 50 μL stop solution. The colorometric products were read at 490 nm on a Victor 3 plate reader. The data presented are from experiments performed in triplicate.\nas §4"}, "MRSA USA300 [6]": {"tested_on": "MRSA USA300", "assay": "Biofilm measurement (crystal violet), MRSA", "type": "cell-based, Staphylococcus aureus", "settings": "control = 100", "procedure": "(§5) Bacterial cells were grown in Luria Broth overnight and an OD600 of 0.5 corresponding to 10^6 cfu/mL. 200 μL of this bacterial culture was plated with the presence of compound at various concentrations. Biofilm was allowed to form by placing the plate at 37° C. in the incubator without shaking. The plate was then washed 2× with water while being careful not to disturb the biofilm. Water was aspirated out and the plate was baked dry in a 60° C. incubator for 2 h. 125 μL of a 0.06% crystal violet solution ([…] in H2O) was added to each well and allowed to sit at room temperature for 15 minutes. […] The plate was inverted on a paper towel to dry overnight.125 μL of 30% acetic acid was added to each well and was left at room temperature for 15 minutes. The wells were mixed by pipetting and the solution was transferred to a clean 96-well plate and read at OD595."}, "MRSE Q-15 [7]": {"tested_on": "MRSE Q-15", "assay": "Biofilm measurement (crystal violet), MRSE", "type": "cell-based, Staphylococcus epidermidis", "settings": "control = 100", "procedure": "as §5"}, "[8]": {"tested_on": "MRSA knockout strain (Lac Δagr)", "type": "cell-based, Staphylococcus aureus", "settings": "data not shown"}, "MRSA USA300 [9]": {"tested_on": "MRSA USA300", "assay": "Murine MRSA bacteremia/sepsis model"}, "MRSE Q-15 [10]": {"tested_on": "MRSE Q-15", "assay": "RT-qPCR of virulence gene transcription in MRSE", "settings": "50 μg/mL F19"}},
  "note": "Where a chain is given by its changes, count along the chain named. Where “and” joins values, the source holds several entries; their conditions need not be identical. Equal values may be shown once.",
  "data": [
    {"smiles": "CCCCCCc1cc(C(=O)COc2ccc(C(C)C)cc2)c(O)cc1O", "note": "[4f-19]", "values": [
      {"measurement": "bacterial load on the wounds compared to vehicle-treated or untreated wounds", "setting": "MRSA USA300 [1]", "value": "did not reduce the bacterial load on the wounds"},
      {"measurement": "tissue burden of the wound, average log CFUs ± standard deviation", "setting": "MRSA USA300 [1]; cephalothin 30 mg/kg, F19 20 mg/kg, vancomycin 30 mg/kg", "value": "8.50±0.4", "unit": "log CFU"},
      {"measurement": "Kd", "setting": "[2]", "value": "2.9 µM and 4.5 µM"},
      {"measurement": "affinity to AgrA_C from Staphylococcus epidermidis", "setting": "[3]", "value": "Statistically identical affinity"},
      {"measurement": "CFU counts, F19 treated vs. untreated cultures", "setting": "MRSA", "value": "identical CFU counts"},
      {"measurement": "% Damage (LDH Leakage)", "setting": "MRSE Q-15 [4]; F19 1 μg/mL", "value": "85.5 ± 2.6", "unit": "%"},
      {"measurement": "% Damage (LDH Leakage)", "setting": "MRSE Q-15 [4]; F19 5 μg/mL", "value": "62.6 ± 1.1", "unit": "%"},
      {"measurement": "% Damage (LDH Leakage)", "setting": "MRSE Q-15 [4]; F19 10 μg/mL", "value": "48.1 ± 1.1", "unit": "%"},
      {"measurement": "% Damage (LDH Leakage)", "setting": "MRSE Q-15 [4]; F19 20 μg/mL", "value": "26.5 ± 0.5", "unit": "%"},
      {"measurement": "% Damage (LDH Leakage)", "setting": "MRSE Q-15 [4]; F19 30 μg/mL", "value": "22.1 ± 0.6", "unit": "%"},
      {"measurement": "% Damage (LDH Leakage)", "setting": "MRSE Q-15 [4]; F19 40 μg/mL", "value": "19.6 ± 1.1", "unit": "%"},
      {"measurement": "Damage (%)", "setting": "MRSE Q-15 [4]; F19 1 μg/ml", "value": "85.5 ± 2.6", "unit": "%"},
      {"measurement": "Damage (%)", "setting": "MRSE Q-15 [4]; F19 10 μg/ml", "value": "48.1 ± 1.1", "unit": "%"},
      {"measurement": "Damage (%)", "setting": "MRSE Q-15 [4]; F19 50 μg/ml", "value": "15.7 ± 0.5", "unit": "%"},
      {"measurement": "% Damage (LDH Leakage)", "setting": "[5]; F19 1 μg/mL", "value": "89.3 ± 1.0", "unit": "%"},
      {"measurement": "% Damage (LDH Leakage)", "setting": "[5]; F19 5 μg/mL", "value": "68.3 ± 1.1", "unit": "%"},
      {"measurement": "% Damage (LDH Leakage)", "setting": "[5]; F19 10 μg/mL", "value": "45.5 ± 1.7", "unit": "%"},
      {"measurement": "% Damage (LDH Leakage)", "setting": "[5]; F19 20 μg/mL", "value": "37.1 ± 0.6", "unit": "%"},
      {"measurement": "% Damage (LDH Leakage)", "setting": "[5]; F19 50 μg/mL", "value": "37.7 ± 0.7", "unit": "%"},
      {"measurement": "% Damage (LDH Leakage)", "setting": "Bacillus cereus; F19 30 μg/mL", "value": "63.7 ± 1.3", "unit": "%"},
      {"measurement": "% Damage (LDH Leakage)", "setting": "Bacillus cereus; F19 40 μg/mL", "value": "52.0 ± 0.1", "unit": "%"},
      {"measurement": "% Damage (LDH Leakage)", "setting": "Bacillus cereus; F19 50 μg/mL", "value": "69.7 ± 1.2", "unit": "%"},
      {"measurement": "Biofilm (%)", "setting": "MRSA USA300 [6]; F19 1 μg/ml", "value": "78.8 ± 11.8", "unit": "%"},
      {"measurement": "Biofilm (%)", "setting": "MRSA USA300 [6]; F19 10 μg/ml", "value": "53.7 ± 7.9", "unit": "%"},
      {"measurement": "Biofilm (%)", "setting": "MRSA USA300 [6]; F19 50 μg/ml", "value": "20.6 ± 3.7", "unit": "%"},
      {"measurement": "Biofilm (%)", "setting": "MRSE Q-15 [7]; F19 1 μg/ml", "value": "92.2 ± 9.8", "unit": "%"},
      {"measurement": "Biofilm (%)", "setting": "MRSE Q-15 [7]; F19 10 μg/ml", "value": "69.3 ± 10.7", "unit": "%"},
      {"measurement": "Biofilm (%)", "setting": "MRSE Q-15 [7]; F19 50 μg/ml", "value": "34.1 ± 9.8", "unit": "%"},
      {"measurement": "synergy with antibiotics in Lac Δagr", "setting": "[8]", "value": "synergy is lost"},
      {"measurement": "mean bacterial load in blood compared to vehicle-treated animals", "setting": "MRSA USA300 [9]; 30 mg/kg IP twice daily, day 6", "value": "nearly an order of magnitude lower"},
      {"measurement": "survival", "setting": "MRSA USA300 [9]; F19 alone 30 mg/kg IP twice daily for 7 days", "value": 100, "unit": "%"},
      {"measurement": "inhibition of AtlE transcription", "setting": "MRSE Q-15 [10]", "value": 1910, "unit": "fold"},
      {"measurement": "inhibition of psm-α transcription", "setting": "MRSE Q-15 [10]", "value": 5043, "unit": "fold"}
    ]}
  ]
}
